The source made the active and inactive calls. No cut-off for these calls is given here.
Assays:
[1] = test system: SW1990; assay: Induction of autophagy in human SW1990 cells assessed as increase in ATG5 expression at 1 to 2 uM incubated for 4 days by immunofluorescence assay; assay type: functional, cell-based; details: dose 1-2 µM, time 4.0 day
[2] = test system: SW1990; assay: Induction of cell cycle arrest in human SW1990 cells assessed as accumulation of cells at S phase at 1 uM incubated for 4 days by propidium iodide staining based flow cytometry (reference value: 29.32%); assay type: functional; details: time 4 day
[3] = test system: SW1990; assay: Induction of apoptosis in human SW1990 cells assessed as late apoptotic cells at 2 uM after 4 days by Annexin V-FITC and propidium iodide staining based flow cytometry (reference value: 6.22%); assay type: functional; details: time 4 day
[4] = test system: SW1990; assay: Induction of apoptosis in human SW1990 cells assessed as late apoptotic cells at 1 uM after 4 days by Annexin V-FITC and propidium iodide staining based flow cytometry (reference value: 6.22%); assay type: functional; details: time 4 day
[5] = test system: Mus musculus; assay: Inhibition of homologous recombinant repair in human SW1990 cells xenografted in BALB/c mouse assessed as reduction in olaparib-induced FOXM1 expression at 15 mg/kg, ip after 4 days by immunohistochemical analysis; assay type: functional, organism-based; details: time 4.0 day
[6] = test system: Mus musculus; assay: In vivo inhibition of PARP1 expression in human […] cells xenografted in BALB/c mouse at 45 mg/kg, ip administered for 28 consecutive days by Western blot analysis; assay type: functional, organism-based; details: time 28.0 day
[7] = biological target: T1, Bromodomain-containing protein 1 (Homo sapiens, UniProt O95696); assay: Inhibition of recombinant BRD1 (unknown origin) incubated for 120 mins by TR-FRET assay
T1 sequence (O95696 whole entry): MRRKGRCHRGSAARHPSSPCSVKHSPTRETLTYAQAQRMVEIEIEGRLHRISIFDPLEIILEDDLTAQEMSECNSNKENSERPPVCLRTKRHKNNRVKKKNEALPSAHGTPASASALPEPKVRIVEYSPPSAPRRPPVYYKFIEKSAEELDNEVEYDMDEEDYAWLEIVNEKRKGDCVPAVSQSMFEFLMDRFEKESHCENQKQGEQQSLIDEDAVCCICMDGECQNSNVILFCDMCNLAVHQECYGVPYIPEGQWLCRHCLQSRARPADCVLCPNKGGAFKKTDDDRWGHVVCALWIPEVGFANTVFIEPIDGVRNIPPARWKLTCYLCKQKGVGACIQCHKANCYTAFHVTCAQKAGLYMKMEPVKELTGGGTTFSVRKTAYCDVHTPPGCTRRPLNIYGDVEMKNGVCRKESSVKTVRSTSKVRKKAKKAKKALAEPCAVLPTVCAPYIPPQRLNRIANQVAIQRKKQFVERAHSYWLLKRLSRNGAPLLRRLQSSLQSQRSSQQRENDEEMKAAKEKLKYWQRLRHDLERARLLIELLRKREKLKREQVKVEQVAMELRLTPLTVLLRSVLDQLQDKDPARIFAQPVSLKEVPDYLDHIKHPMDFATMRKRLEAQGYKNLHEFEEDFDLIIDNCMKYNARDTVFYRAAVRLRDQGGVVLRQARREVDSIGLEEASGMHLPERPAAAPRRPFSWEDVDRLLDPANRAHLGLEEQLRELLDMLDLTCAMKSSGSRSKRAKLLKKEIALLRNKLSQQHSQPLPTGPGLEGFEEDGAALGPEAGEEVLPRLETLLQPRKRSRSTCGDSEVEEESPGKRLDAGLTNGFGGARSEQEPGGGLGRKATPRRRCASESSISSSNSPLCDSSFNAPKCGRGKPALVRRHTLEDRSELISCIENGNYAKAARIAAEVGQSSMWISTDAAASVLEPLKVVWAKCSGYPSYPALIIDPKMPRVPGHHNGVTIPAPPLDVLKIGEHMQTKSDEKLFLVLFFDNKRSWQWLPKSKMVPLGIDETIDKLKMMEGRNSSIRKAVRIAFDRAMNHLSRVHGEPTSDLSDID

[8] = test system: SW1990; assay: Effect on cell cycle progression in human SW1990 cells assessed as reduction in CDK6 expression at 1 to 2 uM after 4 days by Western blot analysis; assay type: functional, cell-based; details: dose 1-2 µM, time 4.0 day
[9] = test system: SW1990; assay: Induction of autophagy in human SW1990 cells xenografted in BALB/c mouse assessed as increase in beclin1 expression at 45 mg/kg, ip after 4 days by Q-PCR analysis; assay type: functional, organism-based; details: time 4.0 day
[10] = test system: SW1990; assay: Induction of cell cycle arrest in human SW1990 cells assessed as accumulation of cells at G0/G1 phase at 1 uM incubated for 4 days by propidium iodide staining based flow cytometry (reference value: 64.79%); assay type: functional; details: time 4 day
[11] = biological target: Bromodomain-containing protein 3 (Homo sapiens, UniProt Q15059); assay: Inhibition of recombinant BRD3 BD1 (unknown origin) incubated for 120 mins by TR-FRET assay
[12] = test system: SW1990; assay: Induction of cell cycle arrest in human SW1990 cells assessed as accumulation of cells at G0/G1 phase at 2 uM incubated for 4 days by propidium iodide staining based flow cytometry (reference value: 64.79%); assay type: functional; details: time 4 day
[13] = test system: SW1990; assay: Induction of autophagy in human SW1990 cells xenografted in BALB/c mouse assessed as increase in LC3B expression at 45 mg/kg, ip after 4 days by Western blot analysis; assay type: functional, organism-based; details: time 4.0 day
[14] = test system: Mus musculus; assay: Inhibition of homologous recombinant repair in human SW1990 cells xenografted in BALB/c mouse assessed as reduction in olaparib-induced BRCA1 expression at 15 mg/kg, ip after 4 days by immunohistochemical analysis; assay type: functional, organism-based; details: time 4.0 day
[15] = test system: SW1990; assay: Inhibition of homologous recombinant repair in human SW1990 cells assessed as reduction in FOXM1 expression at 4 uM after 4 days by Q-PCR analysis; assay type: functional, cell-based; details: time 4.0 day
[16] = test system: SW1990; assay: Inhibition of homologous recombinant repair in human SW1990 cells assessed as reduction in Rad51 expression at 4 uM after 4 days by Western blot analysis; assay type: functional, cell-based; details: time 4.0 day
[17] = test system: Mus musculus; assay: Toxicity in BALB/c mouse xenografted with human SW1990 cells assessed as heart damage at 15 mg/kg, ip administered for 28 consecutive days in presence of 45 mg/kg Olaparib; assay type: organism-based; details: in vivo, 672 h, time 28 day
[18] = test system: SW1990; assay: Induction of autophagy in human SW1990 cells assessed as increase in LC3B expression at 4 uM incubated for 4 days by immunofluorescence assay; assay type: functional, cell-based; details: time 4.0 day
[19] = test system: SW1990; assay: Induction of apoptosis in human SW1990 cells assessed as late apoptotic cells at 4 uM after 4 days by Annexin V-FITC and propidium iodide staining based flow cytometry (reference value: 6.22%); assay type: functional; details: time 4 day
[20] = test system: SW1990; assay: Effect on cell cycle progression in human SW1990 cells assessed as reduction in Olaparib-induced PLK1 expression at 1 uM after 4 days in presence of Olaparib by Western blot analysis; assay type: functional, cell-based; details: time 4.0 day
[21] = test system: Mus musculus; assay: Toxicity in BALB/c mouse xenografted with human SW1990 cells assessed as effect on body weight at 15 mg/kg, ip administered for 28 consecutive days; assay type: organism-based; details: in vivo, 672 h, time 28 day
[22] = test system: Mus musculus; assay: Toxicity in BALB/c mouse xenografted with human SW1990 cells assessed as heart damage at 15 mg/kg, ip administered for 28 consecutive days by H and E staining based […] microscopic analysis; assay type: organism-based; details: in vivo, 672 h, time 28 day

Sequence of Bromodomain-containing protein 3 (Q15059 whole entry): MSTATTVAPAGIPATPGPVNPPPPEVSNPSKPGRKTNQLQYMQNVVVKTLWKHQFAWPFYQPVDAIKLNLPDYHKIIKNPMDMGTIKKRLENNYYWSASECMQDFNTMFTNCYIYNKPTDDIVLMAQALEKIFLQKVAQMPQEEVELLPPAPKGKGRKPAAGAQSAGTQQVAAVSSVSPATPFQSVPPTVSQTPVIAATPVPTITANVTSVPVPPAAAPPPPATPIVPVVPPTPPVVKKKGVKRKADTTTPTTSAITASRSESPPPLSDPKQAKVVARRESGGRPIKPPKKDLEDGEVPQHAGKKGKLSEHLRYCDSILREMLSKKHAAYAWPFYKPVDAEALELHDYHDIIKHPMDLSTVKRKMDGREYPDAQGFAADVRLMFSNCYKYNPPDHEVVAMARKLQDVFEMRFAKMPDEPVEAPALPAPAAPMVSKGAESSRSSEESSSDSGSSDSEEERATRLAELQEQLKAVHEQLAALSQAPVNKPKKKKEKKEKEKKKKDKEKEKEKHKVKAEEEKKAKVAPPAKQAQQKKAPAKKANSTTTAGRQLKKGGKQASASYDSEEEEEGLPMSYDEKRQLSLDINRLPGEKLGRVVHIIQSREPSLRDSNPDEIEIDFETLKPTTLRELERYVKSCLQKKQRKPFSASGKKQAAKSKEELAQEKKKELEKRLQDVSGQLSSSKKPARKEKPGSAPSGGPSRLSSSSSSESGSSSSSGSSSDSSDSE

With CC[C@@H]1C(=O)N(C)c2cnc(N(C)c3ccc(-c4nc5c(C(N)=O)cccc5[nH]4)cc3OC)nc2N1C1CCCC1 the Activity [1] was “Active”, the Activity [2] was 14.74% and the Activity [3] was 40.3%. For the same molecule, the Activity [4] was 28.4%, the inhibition [5] was “Active” and the Activity [6] was “Active”. The IC50 [7] was 36.5 µM, the Activity [8] was “Active” and the Activity [9] was “Active”. The Activity [10] was 74.76%, the IC50 [11] was 166 nM and the Activity [12] was 77.56%. The Activity [13] was “Active” and the inhibition [14] was “Active”.

With Cc1sc2c(c1C)C(c1ccc(Cl)cc1)=N[C@@H](CC(=O)OC(C)(C)C)c1nnc(C)n1-2 the inhibition [15] was “Active”, the inhibition [16] was “Active” and the Activity [17] was “Non-Toxic”. For the same molecule, the Activity [18] was “Active”, the Activity [19] was 25.5% and the Activity [20] was “Active”. The Activity [21] was “Non-Toxic” and the Activity [22] was “Non-Toxic”.
